Columns and labels:
[1] = tested on: human primary trabecular meshwork cells; assay: α-SMA expression in TGF-β2 treated TM cells; assay type: cell-based; conditions: TGFβ2 5 ng/mL 48 hr; remodilin 3 μM, PGE2 1 μM; vs DMSO
Description: FIG. 9 Anti-fibrogenic effects of remodilin 50 in human primary trabecular meshwork cells.
(§1) TM cells were cultured in 6-well plates and serum-deprived for one day before drug treatment. Cells were treated with prostaglandin E2 (PGE2, 1 μM), remodilin [3 μM] or vehicle control (dimethyl sulfoxide, DMSO) together with human recombinant TGF-β2 [5 ng/ml] for 48 hours. PGE2 was chosen as a positive control due to its known anti-fibrogenic effects. […] The effect of remodilin treatment alone on cellular contractile force in TM cells was examined. The effects of remodilin treatment using “force response ratio” which is a normalized average contractile force compared to baseline, was examined. Average contractile force was measured using Fourier-Transform Traction Microscopy. After 1 hr treatment, compared to DMSO, remodilins reduced average contractile force of TM cells in a dose dependent manner. […] Therefore, remodilins may change structural compositions and mechanical properties of TM and therefore, may help increase outflow facility in glaucomatous eyes with elevated TGF-β2 level.

[2] = tested on: SRF-dependent transcription; assay: TGFβ-stimulated SRF-dependent transcription (luciferase reporter); assay type: cell-based; conditions: human lung fibroblasts; 10 μM
Description: (§2) FIG. 2 Signaling pathway targeted by remodilins. Schematic diagram (center) of signaling from TGFβ to (SRF); red proteins are some, but not all, potential targets. TGFβ stimulates Smad-dependent transcription in human lung fibroblasts that is unchanged by 10 μM remodilin 4 (left), but TGFβ-stimulated SRF-dependent transcription is inhibited by the remodilin (right). SBE—Smad binding element; Luc—luciferase; TK-RL—constitutively active thymidine kinase promoter-driven renilla luciferase (used to control for transfection efficiency).
(§3) In cultured human lung fibroblasts, remodilins act downstream of Smad signaling, which remains intact, though TGFβ-induced SRF activation is blocked (FIG. 2); SRF is necessary for expression of smooth muscle α-actin and other contractile proteins. Remodilins also suppress TGFβ-induced HIF1α expression in human lung fibroblasts and HIF1α-stimulated pathways in human airway myocytes.

[3] = tested on: human lung-derived fibroblasts; assay: TGFβ-induced myofibroblast transformation (ACTA2, FN1 protein expression); assay type: cell-based; conditions: 1 ng/mL TGFβ1; 0, 1, 3, or 10 μM remodilin for 2 d; dose-dependent
Description: FIG. 1 Remodilins inhibit myofibroblast transformation (MFT). Serum deprived human lung-derived fibroblasts were treated with 1 ng/mL TGFβ1 (or not, left lane) and 0, 1, 3, or 10 μM remodilin for 2 d. Four remodilins each inhibited smooth muscle α-actin (ACTA2) or fibronectin-1 (FN1) protein expression (markers of MFT).

[4] = tested on: Smad-dependent transcription; assay: TGFβ-stimulated Smad-dependent transcription (SBE-Luc reporter); assay type: cell-based; conditions: human lung fibroblasts; 10 μM
Description: as §2, §3

MDA-MB-231 cells [5] = assay: Alamar blue assay (growth inhibition, cytotoxicity); assay type: cell-based, human; conditions: concentrations to at least 10 uM
[6] = Lipophilicity and dissolution in vehicles; assay type: physicochemical
Description: In the experiments corresponding to FIG. 7, remodilin 83 was dissolved in 20% Solutol in PBS.

MDA-MB-231 cells [7] = assay: Spheroid invasion into collagen gels; assay type: cell-based, human; conditions: 10 µM remodilin; 48 hrs; collagen 2 mg/mL; DMEM 0.5% FBS; vs 0.1% DMSO
Description: FIG. 3 MDA-MB-231 cells were grown into spheroids, then allowed to migrate into collagen gels in DMEM containing 0.5% FBS and remodilin (10 µM remodilin 39 [top row] or remodilin 83 [bottom row]) or diluent (0.1% DMSO) for 48 hrs (representative 48 hr images shown).
(§4) Remodilins 39 and 83 each slowed the invasion of triple negative MDA-MB-231 human breast cancer cells from spheroids into a surrounding collagen gel (FIG. 3), and also slowed the serum-directed invasion MDA-MB-231-derived BM1 cells through Matrigel-coated transwells (FIG. 4). Remodilins 39 and 83 also slowed the migration of MDA-MB-231 cells in a scratch wound healing assay (FIG. 5).

[8] = Tissue and plasma concentrations after single oral doses; assay type: in vivo; conditions: mice; single oral doses of 10 or 50 mg/kg (FIG. 6)
Description: FIG. 6 Tissue and plasma remodilin concentrations after single oral doses (filled circles 50 mg/kg; open circles-10 mg/kg). […] The greater oral bioavailability, longer half-life, and inter-tissue variation of remodilin 83 concentration are readily evident. Mean+SEM shown; n=3/condition.
(§5) The in vivo bioavailability, plasma half-life, Cmax, and area under the curve (AUC) were determined after administration of single 10 mg/kg doses of remodilins 39 and 83 to mice (Table 1). Selected tissue concentrations of remodilins 39 and 83 after single oral doses of 10 or 50 mg/kg (FIG. 6). The PK properties of these remodilins differ substantially.
PK was re-evaluated after 14 days of intraperitoneal (IP) or oral BID dosing. […] Plasma levels after single or 15 consecutive once-daily IP 10 mg/kg doses of remodilin 39 were examined (FIG. 8). The plasma concentration of 10 μM remodilin 39 corresponds to 5314 ng/mL.

HIF1α [9] = assay: Hypoxia-induced HIF1α accumulation in HEK293T cells (Western blot); assay type: cell-based; conditions: 6 hrs steady hypoxia; 3 or 10 μM
Description: FIG. 14A-14B Remodilins' effects on hypoxia-induced accumulation of HIF1α. […] FIG. 14B HIF1α was absent in cells ex-posed to 6 hrs normoxia (N).
OSA is a chronic, morbid disease affecting about 10% of the adult population, in which frequent episodes of upper airway collapse obstruct inspiratory airflow and cause IH. These episodes of IH disrupt sleep but perhaps more importantly accelerate multiple cardiometabolic abnormalities, including systemic hypertension, cardiovascular disease, stroke, and abnormal glucose metabolism. Therefore, remodilins were examined for their ability on inhibit hypoxia-induced accumulation of HIF1α, a transcription factor that mediates many of the adverse responses to IH.

HIF1α [10] = assay: Hypoxia-induced HIF1α accumulation in HEK293 cells; assay type: cell-based; conditions: 6 hrs steady hypoxia (1% oxygen); 3 μM or 10 µM
Description: FIG. 12A-12B Remodilins inhibit accumulation of hypoxia-inducible factor-1 alpha (HIF1α) protein. FIG. 12A Effect of remodilin 83 on TGFβ-induced phosphorylation of AKT and ERK1/2 and TGFβ-induced HIF1α accumulation in human fibroblasts. FIG. 12B Both remodilins 39 and 83 inhibited HIF1α accumulation in HEK293 cells exposed to 6 hrs of hypoxia (1% 02).
The influence of remodilin 83 on HIF-1α accumulation in TGFβ-treated fibroblasts was examined. […] Similarly, both remodilins 39 and 83 inhibited HIF1α accumulation in HEK293 cells exposed to 6 hrs of hypoxia (1% O2; FIG. 12B). […] N—normoxia; H—hypoxia.

MDA-MB-231 cells [11] = assay: Scratch wound healing migration assay; assay type: cell-based, human; conditions: dose-dependent; 1, 3, 10 uM; n=8 wells/condition
Description: Mean+SD shown; n=8 wells/condition. P<0.0001 for 1, 3, & 10 uM remodilin 39 vs DMSO (control) by 2-way ANOVA/Dunnett's.
as §4

[12] = tested on: MDA-MB-231-derived BM1 cells; assay: 10% FBS-directed invasion through Matrigel-coated transwell membrane; assay type: cell-based, human; conditions: dose-dependent; n=3/condition
Description: FIG. 4 Remodilins 39 and 83 inhibited 10% FBS-directed invasion migration of MDA-MB-231-derived BM1 cells through a Matrigel-coated transwell mem-brane, in a dose-dependent fashion. Mean+SEM shown; n=3/condition. **P<0.01; ***P<0.001; ****P<0.0001.
as §4

[13] = In vivo PK and oral bioavailability, single dose; conditions: mouse, plasma, wild-type mice, 10 mg/kg single dose
Description: as §5

TM cells = assay: Contractile force of TM cells (Fourier-Transform Traction Microscopy); assay type: cell-based, human; conditions: treatment alone, 1 hr, vs DMSO; dose dependent
Description: as §1

[14] = tested on: human primary Schlemm's canal endothelial cells; assay: Contractile force of SC cells (Fourier-Transform Traction Microscopy); assay type: cell-based; conditions: vs DMSO; for elevation of cellular contractile force in TGFβ2 treated SC cells: TGFβ2 2.5 ng/mL 48 hr, dose-dependent; for cellular contractile force of SC cells, remodilin alone: treatment alone, 1 hr, dose dependent
Description: (§6) FIGS. 11A-11C Anti-fibrogenic effects of remodilins 50, 73, and 82 in human primary Schlemm's canal endothelial cells.
Remodilins' effect on elevation of SC cell contraction by TGF-β2 treatment was then examined. Cellular contractile force was measured using Fourier-Transform Traction Microscopy. Compared to no treatment, TGF-β2 treatment elevated average cellular contractile force by almost seven-fold. […] Then, the effect of remodilin treatment alone on cellular contractile force in SC cells was investigated. After 1 hr treatment, compared to DMSO, remodilins reduced cellular contractile force in a dose dependent manner (FIG. 11C). […] Taken together, the anti-fibrogenic effects and relaxation effects of remodilins could be beneficial to reduce outflow resistance potentially through promoting pore formation in SC inner wall.

[15] = tested on: human primary Schlemm's canal endothelial cells; assay: Fibronectin expression in TGF-β2 treated SC cells; assay type: cell-based; conditions: TGFβ2 2.5 ng/mL 48 hr; remodilin 3 or 10 μM; vs DMSO
Description: as §6
Remodilins' effect on SC cells, another key cell type in conventional outflow pathway, was examined. As described above, TGF-β2 also promotes pro-fibrogenic activation in SC cells and such activation accompanies elevation of cell contraction. Protein expression in TGF-β2 treated SC cells was examined first. SC cells from two different donors were cultured in 6-well plates and serum-deprived for 1 day before drug treatment. Cells were treated with Remodilin [3 or 10 μM] or DMSO together with human recombinant TGF-2 [2.5 ng/ml] for 48 hours.

Structure (SMILES)	α-SMA expression induced by TGF-β2 in TM cells [1]	TGFβ-stimulated transformation of human lung-derived fibroblasts to myofibroblast phenotype (ACTA2 or FN1 protein expression) [3]	average contractile force of TM cells (force response ratio) (TM cells)	elevation of cellular contractile force in TGFβ2 treated SC cells [14]	cellular contractile force of SC cells, remodilin alone [14]	fibronectin expression in TGFβ2 treated SC cells [15]	other results
CCCCC[C@H](O)/C=C/[C@H]1[C@H](O)CC(=O)[C@@H]1C/C=C\CCCC(=O)O [PGE2, prostaglandin E2, reference compound]	inhibited α-SMA expression						
CCN(CC)S(=O)(=O)c1ccc(NC(=O)c2ccc(OC)c(I)c2)cc1 [Remodilin 4, N-(4-(N,N-diethylsulfamoyl)phenyl)-3-iodo-4-methoxybenzamide]		blunt TGFβ-stimulated transformation					TGFβ-stimulated SRF-dependent transcription [2]: inhibited; TGFβ-stimulated Smad-dependent transcription [4]: unchanged
COc1ccc(C(=O)Nc2ccc(S(=O)(=O)N3CCCCC3C)cc2)cc1I (stereo not drawn) [Remodilin 39, 3-Iodo-4-methoxy-N-(4-((2-methylpiperidin-1-yl)sulfonyl)phenyl)benzamide]		blunt TGFβ-stimulated transformation					growth inhibition or cytotoxicity by Alamar blue assay (MDA-MB-231 cells [5]): Neither remodilin is growth-inhibitory or cytotoxic; lipophilicity / lipid solubility [6]: highly lipid soluble; invasion of MDA-MB-231 cells from spheroids into collagen gels (MDA-MB-231 cells [7]): inhibited invasion; tissue distribution [8]: distributed much more uniformly across tissues; HIF1α accumulation in HEK293T cells exposed to hypoxia (HIF1α [9]): inhibit the accumulation of HIF1α; HIF1α accumulation in HEK293 cells exposed to hypoxia (HIF1α [10]): blunted HIF1α accumulation substantially; migration of confluent MDA-MB-231 cells into circular scratch wound (MDA-MB-231 cells [11]): inhibited migration; 10% FBS-directed invasion migration of BM1 cells through Matrigel-coated transwell membrane [12]: inhibited; bioavailability ([13]; po): 4%; AUC [13]: 224 ng·h/mL; Cmax [13]: 240 nM; half-life [13]: 1.3 h
O=C(Nc1ccc(S(=O)(=O)N2CCCC2)cc1)c1ccc(Br)c(I)c1 [Remodilin 50, 4-Bromo-3-iodo-N-(4-(pyrrolidin-1-ylsulfonyl)phenyl)benzamide]	inhibited alpha smooth muscle actin expression	blunt TGFβ-stimulated transformation	induced relaxation in TM cells	inhibited the elevation of cellular contractile force	induced relaxation in SC cells	inhibited fibronectin expression	
CC1CCCCN1S(=O)(=O)c1ccc(NC(=O)c2ccc(Br)c(I)c2)cc1 (stereo not drawn) [Remodilin 73, 4-Bromo-3-iodo-N-(4-((2-methylpiperidin-1-yl)sulfonyl)phenyl)benzamide]				inhibited the elevation of cellular contractile force	induced relaxation in SC cells	inhibited fibronectin expression	
CCC1CCCCN1S(=O)(=O)c1ccc(NC(=O)c2ccc(OC)c(I)c2)cc1 (stereo not drawn) [Remodilin 82, N-(4-((2-ethylpiperidin-1-yl)sulfonyl)phenyl)-3-iodo-4-methoxybenzamide]			induced relaxation in TM cells	inhibited the elevation of cellular contractile force	induced relaxation in SC cells	inhibited fibronectin expression	
